From PubChem BioAssay (NCI)
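These data come from cells grown in 96-well plates and exposed to compound for 48 hours at five concentrations. Abbreviation: GI50, concentration required for 50% inhibition of growth. The concentration for full growth arrest is given as TGI.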

Assays:
Test in all cases: growth of human tumour cells (NCI), 48 h
OVCAR-5 ovarian = tested on: OVCAR-5 ovarian
ACHN renal = tested on: ACHN renal
SF-268 CNS = tested on: SF-268 CNS
SK-MEL-2 melanoma = tested on: SK-MEL-2 melanoma
SF-295 CNS = tested on: SF-295 CNS
SF-539 CNS = tested on: SF-539 CNS
HCT-15 colon = tested on: HCT-15 colon
NCI/ADR-RES ovarian = tested on: NCI/ADR-RES ovarian
SNB-75 CNS = tested on: SNB-75 CNS
NCI-H226 lung = tested on: NCI-H226 lung
UACC-62 melanoma = tested on: UACC-62 melanoma
SR leukemia = tested on: SR leukemia
HOP-62 NSCLC = tested on: HOP-62 NSCLC
K-562 leukemia = tested on: K-562 leukemia
CAKI-1 renal = tested on: CAKI-1 renal
SW-620 colon = tested on: SW-620 colon
MCF7 breast = tested on: MCF7 breast
EKVX NSCLC = tested on: EKVX NSCLC
NCI-H460 lung = tested on: NCI-H460 lung
786-0 renal = tested on: 786-0 renal
UO-31 renal = tested on: UO-31 renal
SK-MEL-28 melanoma = tested on: SK-MEL-28 melanoma
COLO 205 colon = tested on: COLO 205 colon
SNB-19 CNS = tested on: SNB-19 CNS
HT29 colon = tested on: HT29 colon
SK-MEL-5 melanoma = tested on: SK-MEL-5 melanoma
MOLT-4 leukemia = tested on: MOLT-4 leukemia
HCT-116 colon = tested on: HCT-116 colon
CCRF-CEM leukemia = tested on: CCRF-CEM leukemia
IGROV1 ovarian = tested on: IGROV1 ovarian
UACC-257 melanoma = tested on: UACC-257 melanoma
HCC-2998 colon = tested on: HCC-2998 colon
LOX IMVI melanoma = tested on: LOX IMVI melanoma
RXF 393 renal = tested on: RXF 393 renal
OVCAR-3 ovarian = tested on: OVCAR-3 ovarian
A498 renal = tested on: A498 renal
NCI-H23 lung = tested on: NCI-H23 lung
HL-60(TB) leukemia = tested on: HL-60(TB) leukemia
KM12 colon = tested on: KM12 colon
SK-OV-3 ovarian = tested on: SK-OV-3 ovarian
HOP-92 NSCLC = tested on: HOP-92 NSCLC
DU-145 prostate = tested on: DU-145 prostate
M14 melanoma = tested on: M14 melanoma
TK-10 renal = tested on: TK-10 renal
HS 578T breast = tested on: HS 578T breast
U251 CNS = tested on: U251 CNS
T-47D breast = tested on: T-47D breast
PC-3 prostate = tested on: PC-3 prostate
BT-549 breast = tested on: BT-549 breast
NCI-H522 lung = tested on: NCI-H522 lung
A549 NSCLC = tested on: A549 NSCLC
RPMI-8226 leukemia = tested on: RPMI-8226 leukemia
OVCAR-8 ovarian = tested on: OVCAR-8 ovarian
OVCAR-4 ovarian = tested on: OVCAR-4 ovarian
MDA-MB-435 = tested on: MDA-MB-435
SN12C renal = tested on: SN12C renal
MDA-MB-231 breast = tested on: MDA-MB-231 breast

COC(=O)[C@H]1[C@@H](O)[C@@]2(O)c3c(OC)cc(OC)cc3O[C@@]2(c2ccc(OC)cc2)[C@@H]1c1ccccc1
GI50 (OVCAR-5 ovarian): 40.3 nM
TGI (OVCAR-5 ovarian): 1030 nM
GI50 (ACHN renal): 10.2 nM
TGI (ACHN renal): 166 nM
GI50 (SF-268 CNS): 25.6 nM
TGI (SF-268 CNS): 492 nM
GI50 (SK-MEL-2 melanoma): 29.2 nM
TGI (SK-MEL-2 melanoma): 89.6 nM
GI50 (SF-295 CNS): 14.1 nM
TGI (SF-295 CNS): 126 nM
GI50 (SF-539 CNS): 7.9 nM
TGI (SF-539 CNS): 72 nM
GI50 (HCT-15 colon): 10.9 nM
TGI (HCT-15 colon): 447 nM
GI50 (NCI/ADR-RES ovarian): 19.8 nM
TGI (NCI/ADR-RES ovarian): 101 nM
GI50 (SNB-75 CNS): 42.9 nM
TGI (SNB-75 CNS): 1250 nM
GI50 (NCI-H226 lung): 11.8 nM
TGI (NCI-H226 lung): 260 nM
GI50 (UACC-62 melanoma): 38.3 nM
TGI (UACC-62 melanoma): 569 nM
GI50 (SR leukemia): 14.2 nM
TGI (SR leukemia): 16700 nM
GI50 (HOP-62 NSCLC): 11.8 nM
TGI (HOP-62 NSCLC): 101 nM
GI50 (K-562 leukemia): 9.61 nM
TGI (K-562 leukemia): 6820 nM
GI50 (CAKI-1 renal): 28.5 nM
TGI (CAKI-1 renal): 2720 nM
GI50 (SW-620 colon): 9.12 nM
TGI (SW-620 colon): 2320 nM
GI50 (MCF7 breast): 6.7 nM
TGI (MCF7 breast): 231 nM
GI50 (EKVX NSCLC): 20.6 nM
TGI (EKVX NSCLC): 360 nM
GI50 (NCI-H460 lung): 5.37 nM
TGI (NCI-H460 lung): 653 nM
GI50 (786-0 renal): 45.1 nM
TGI (786-0 renal): 267 nM
GI50 (UO-31 renal): < 17.2 nM
TGI (UO-31 renal): 129 nM
GI50 (SK-MEL-28 melanoma): 26.1 nM
TGI (SK-MEL-28 melanoma): 277 nM
GI50 (COLO 205 colon): 15.3 nM
TGI (COLO 205 colon): 52 nM
GI50 (SNB-19 CNS): 16.2 nM
TGI (SNB-19 CNS): 716 nM
GI50 (HT29 colon): 7.13 nM
TGI (HT29 colon): 93.5 nM
GI50 (SK-MEL-5 melanoma): 18.2 nM
TGI (SK-MEL-5 melanoma): 81.4 nM
GI50 (MOLT-4 leukemia): 6.22 nM
TGI (MOLT-4 leukemia): 488 nM
GI50 (HCT-116 colon): 10.2 nM
TGI (HCT-116 colon): 179 nM
GI50 (CCRF-CEM leukemia): 14.7 nM
TGI (CCRF-CEM leukemia): 5690 nM
GI50 (IGROV1 ovarian): 20.7 nM
TGI (IGROV1 ovarian): 1340 nM
GI50 (UACC-257 melanoma): 44.8 nM
TGI (UACC-257 melanoma): 143 nM
GI50 (HCC-2998 colon): 8.33 nM
TGI (HCC-2998 colon): 205 nM
GI50 (LOX IMVI melanoma): 11.5 nM
TGI (LOX IMVI melanoma): 75.9 nM
GI50 (RXF 393 renal): 10.5 nM
TGI (RXF 393 renal): 78.2 nM
GI50 (OVCAR-3 ovarian): 22.3 nM
TGI (OVCAR-3 ovarian): 304 nM
GI50 (A498 renal): 10 nM
TGI (A498 renal): 48.5 nM
GI50 (NCI-H23 lung): 15.5 nM
TGI (NCI-H23 lung): 146 nM
GI50 (HL-60(TB) leukemia): 18.3 nM
TGI (HL-60(TB) leukemia): 108 nM
GI50 (KM12 colon): < 10.5 nM
TGI (KM12 colon): 757 nM
GI50 (SK-OV-3 ovarian): 11.9 nM
TGI (SK-OV-3 ovarian): 231 nM
GI50 (HOP-92 NSCLC): 48 nM
TGI (HOP-92 NSCLC): 3890 nM
GI50 (DU-145 prostate): 17.3 nM
TGI (DU-145 prostate): 207 nM
GI50 (M14 melanoma): 11.9 nM
TGI (M14 melanoma): 52.2 nM
GI50 (TK-10 renal): 45.5 nM
TGI (TK-10 renal): 166 nM
GI50 (HS 578T breast): 44.2 nM
TGI (HS 578T breast): 1280 nM
GI50 (U251 CNS): 23.8 nM
TGI (U251 CNS): 749 nM
GI50 (T-47D breast): 7.22 nM
TGI (T-47D breast): 103 nM
GI50 (PC-3 prostate): 18.6 nM
TGI (PC-3 prostate): 6250 nM
GI50 (BT-549 breast): 39.9 nM
TGI (BT-549 breast): 213 nM
GI50 (NCI-H522 lung): 17 nM
TGI (NCI-H522 lung): 106 nM
GI50 (A549 NSCLC): 8.57 nM
TGI (A549 NSCLC): 177 nM
GI50 (RPMI-8226 leukemia): 19.2 nM
TGI (RPMI-8226 leukemia): 339 nM
GI50 (OVCAR-8 ovarian): 32.7 nM
TGI (OVCAR-8 ovarian): 408 nM
GI50 (OVCAR-4 ovarian): 26.6 nM
TGI (OVCAR-4 ovarian): 659 nM
GI50 (MDA-MB-435): 12.1 nM
TGI (MDA-MB-435): 626 nM
GI50 (SN12C renal): 19 nM
TGI (SN12C renal): 214 nM
GI50 (MDA-MB-231 breast): 32.8 nM
TGI (MDA-MB-231 breast): 132 nM
